According to US20160075689A1, “POLYMERASE, ENDONUCLEASE, AND HELICASE INHIBITORS AND METHODS OF USING THEREOF” (THE BOARD OF TRUSTEES OF THE UNIVERSITY OF ARKANSAS, priority 2013, published 2016):

Molecular target: T1, hpol η (Homo sapiens, UniProt Q9Y253)
T1 construct: human DNA polymerases η (amino acids 1-437); 6x-histidine (N, cleaved yes); GST (N, cleaved yes); made in house; host or cells: Escherichia coli BL21 (DE3)
T1 sequence (Q9Y253 1-437): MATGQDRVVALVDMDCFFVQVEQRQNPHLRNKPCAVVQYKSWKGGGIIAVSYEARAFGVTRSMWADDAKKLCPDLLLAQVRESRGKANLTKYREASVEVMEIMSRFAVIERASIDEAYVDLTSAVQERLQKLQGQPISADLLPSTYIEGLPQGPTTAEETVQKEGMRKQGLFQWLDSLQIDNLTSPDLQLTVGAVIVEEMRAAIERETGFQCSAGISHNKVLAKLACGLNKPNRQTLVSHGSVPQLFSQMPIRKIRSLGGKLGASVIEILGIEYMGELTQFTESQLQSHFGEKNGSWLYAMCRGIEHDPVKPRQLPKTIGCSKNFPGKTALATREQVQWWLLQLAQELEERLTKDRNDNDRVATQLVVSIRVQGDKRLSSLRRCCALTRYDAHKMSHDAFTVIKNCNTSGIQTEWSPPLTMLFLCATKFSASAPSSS
Experiment: Fluorescence-based DNA polymerase strand-displacement assay
Format: biochemical
Conditions: not given
Source text: A library of 320 compounds targeted against nucleic acid interacting proteins was screened for inhibition of polymerase activity using an assay that monitors fluorescence from a 5-carboxytetramethylrhodamine (TAMRA) labeled oligonucleotide. In order to prepare the DNA for the experiment, a TAMRA-labeled reporter (or displaced) strand (SEQ ID NO. 4: 5′-TTT TTT TTG C-TAMRA-3′) and unlabeled primer strand (SEQ ID NO. 5: 5′-TCA CCC TCGTAC GAC TCT T-3′) were annealed to a Black Hole Quencher (BHQ)-labeled template strand (SEQ ID NO. 6: 5′BHQ2-GCAAAAAAAAAA GAG TCG TAC GAG GGT GA-3′) in a solution containing 10 mM Tris (pH 8.0), 50 mM NaCl, 2 mM MgCl2, and dH2O. The template (T), primer (P) and displaced strand (D) oligonucleotides were mixed in a 1:1.5:1.5 (T:P:D) molar ratio for annealing. After an incubation period of three minutes at 95° C., the DNA was allowed to slowly cool to room temperature overnight.
The fluorescence-based assay used to screen for polymerase inhibitors measures polymerase-catalyzed displacement of a TAMRA-labeled oligonucleotide (FIG. 1). For the initial screen, the experimental setup included 50 nM hpol η), 50 nM DNA, 6 μM compound, 100 μM dTTP and 1 mM MgCl2. The reactions were performed in 50 mM Tris (pH 8.0) buffer containing 40 mM NaCl, 2 mM dithiothreitol, and 0.01% (v/v) Tween-20. The concentration of dimethyl sulfoxide (DMSO) was 3.5% (v/v) for the initial screen. The enzyme, the compounds (including a DMSO control) and dTTP were combined with the reaction buffer in individual wells of each half-plate and allowed to incubate for 5-10 minutes. The DNA substrate was subsequently added to initiate the reaction and the plate was read immediately using a BioTek SynergyH4 plate reader (λex=525 nm, λem=598 run). The final reaction volume was 200 μL. Fluorescence was monitored for 90 minutes for most reactions. The initial portion of the velocity curve was analyzed by linear regression to calculate an observed rate of product formation. For each data set, eight DMSO control experiments were averaged to obtain our measure of 100% activity. Rates of product formation in the presence of each compound were then divided by the rate of the DMSO control to produce a relative measure of polymerase activity (0 to 1, with 1 being no inhibition).
In order to determine the IC50 value for each enzyme, the fluorescence-based polymerase assay was repeated with increasing concentrations of inhibitor. The conditions varied slightly for each enzyme. With the exception of hpol ι, all IC50 experiments were performed in 50 mM Tris HCl (pH 8.0) buffer containing 1 mM MgCl2, 0.1 mM dTTP, 40 mM NaCl, 2 mM DTT, 0.01% (v/v) Tween-20 and 10% (v/v) DMSO. For experiments with hpol ι, KCl was substituted for NaCl and 0.25 mM MnCl2 was substituted for MgCl2. The concentration of inhibitor was 0, 1, 5, 10, 20, 30, 50, 75 and 100 μM. The enzyme and DNA concentrations were as follows: 10 nM hpol η, 50 nM DNA; 3 nM hpol κ, 60 nM DNA; 50 nM hpol ι, 50 nM DNA; 10 nM Dpo4, 50 nM DNA; 100 nM Dpo1, 50 nM DNA; 50 nM hpol β, 50 nM DNA; 50 nM HIV-1 RT, 50 nM DNA. The percent activity was plotted as a function of the log of inhibitor concentration and fit to a four-parameter logistic model (equation 1) using Prism software (Graph Pad, San Diego, Calif.): […]

Compound O=C1NC(=S)NC(=O)C1=Cc1cn(C(=O)c2cccc3ccccc23)c2ccc(Cl)cc12 [ITBA-17] has an IC50 of 15.8 ± 3.3 µM.

Same assay, conditions: 50 μM compound

For O=C1NC(=S)NC(=O)C1=Cc1cn(C(=O)c2cccc3ccccc23)c2ccc(Cl)cc12 [ITBA-17], the “hpol η percent activity relative to the control assay” value was “most potent inhibitor”.

Molecular target: T2, EndoG (Homo sapiens, UniProt Q14249)
T2 sequence (Q14249 49-297): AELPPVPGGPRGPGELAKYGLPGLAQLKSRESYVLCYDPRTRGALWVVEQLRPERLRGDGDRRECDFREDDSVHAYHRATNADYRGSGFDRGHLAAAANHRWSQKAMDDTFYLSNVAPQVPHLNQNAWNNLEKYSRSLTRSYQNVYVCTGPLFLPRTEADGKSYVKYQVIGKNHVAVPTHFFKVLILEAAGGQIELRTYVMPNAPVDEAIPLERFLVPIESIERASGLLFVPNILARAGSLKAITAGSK
Experiment: High-throughput EndoG screening assay
Format: biochemical
Conditions: 20 min; compound 1 μM; read-out: % EndoG activity in the presence of the compound
Protocol: A reaction mixture was prepared in each well of a white 96-well plate (Costar, Corning, N.Y.) as follows: 0.25 μM Cy5.5-labeled oligonucleotide (described in US provisional patent filed Oct. 19, 2012, Ser. No. 61/716,097) 0.3 mM MgCl2, 10 mM Tris-HCl, pH 7.4, 1 μl DMSO containing 5 or 50 ng of test compound, and nuclease-free water for a total reaction volume of 100 μl. The background (negative control) and uninhibited EndoG samples were measured using DMSO only, or DMSO containing recombinant EndoG (4 μg/ml), respectively. After addition of EndoG, fluorescence intensity was kinetically measured on a Bio-Tek Synergy 4.0 plate reader at 37° C. and mean velocity (mRFU/min) within 20 min was automatically calculated by the plate reader. The background was subtracted prior to the calculation of EndoG activity (%). The percent of EndoG activity was calculated from the mean velocity of a compound divided by the mean velocity of DMSO with recombinant EndoG, and the obtained value multiplied by 100.

First: COc1cc(Cn2c(C)c(C=C3C(=O)NC(=S)NC3=O)c3ccccc32)cc(OC)c1 [PNR-5-96]
Second: COc1ccc2c(c1)c(C=C1C(=O)NC(=S)NC1=O)c(C)n2Cc1cccc2ccccc12 [PNR-7-27]
The remaining activity at 1 µM of the first is higher: 71.5% for the first, 19.1% for the second.

First: Cc1c(C=C2C(=O)NC(=S)NC2=O)c2ccccc2n1Cc1ccc([N+](=O)[O-])cc1 [PNR-6-17]
Second: Cc1c(C=C2C(=O)NC(=S)NC2=O)c2ccccc2n1Cc1cccc(C(F)(F)F)c1 [PNR-7-24]
The remaining activity at 1 µM of the first is lower: 69.8% for the first, 73.6% for the second.

Compared with CN1C(=O)C(=Cc2cn(C(=O)c3cccc4ccccc34)c3ccc(Cl)cc23)C(=O)N(C)C1=O [PNR-6-59], CN1C(=O)C(=Cc2cn(C(=O)c3ccc4ccccc4c3)c3ccc(Cl)cc23)C(=O)N(C)C1=O [PNR-6-60] is higher in remaining activity at 1 µM: 47.5% for the first, 67.9% for the second.

Going from Cc1c(C=C2C(=O)NC(=O)NC2=O)c2ccccc2n1C(=O)c1cccc2ccccc12 [PNR-6-64] to Cc1c(C=C2C(=O)NC(=S)NC2=O)c2ccccc2n1C(=O)c1cccc2ccccc12 [PNR-6-65], the remaining activity at 1 µM falls from 71.7% to 65%.

First: Cc1c(C=C2C(=O)NC(=S)NC2=O)c2ccccc2n1C(=O)c1ccc2ccccc2c1 [PNR-6-69]
Second: COc1ccc2c(c1)c(C=C1C(=O)NC(=S)NC1=O)c(C)n2C(=O)c1cccc2ccccc12 [PNR-6-74]
The remaining activity at 1 µM of the first is lower: 31.6% for the first, 63.5% for the second.

First: O=C1NC(=S)NC(=O)C1=Cc1cn(Cc2cccc3ccccc23)c2ccccc12 [PNR-6-83]
Second: O=C1NC(=S)NC(=O)C1=Cc1cn(Cc2cccc3ccccc23)c2ccc(Cl)cc12 [PNR-6-89]
The remaining activity at 1 µM of the first is higher: 16% for the first, 3.5% for the second.

Going from COc1ccc2c(c1)c(C=C1C(=O)NC(=O)NC1=O)cn2Cc1cccc2ccccc12 [PNR-6-85] to COc1ccc2c(c1)c(C=C1C(=O)NC(=S)NC1=O)cn2Cc1cccc2ccccc12 [PNR-6-86], the remaining activity at 1 µM falls from 52.7% to 9.55%.

Compared with O=C1NC(=O)C(=Cc2cn(Cc3cccc4ccccc34)c3ccc(Cl)cc23)C(=O)N1 [PNR-6-88], O=C1NC(=O)C(=Cc2cn(Cc3cccc4ccccc34)c3ccc(Br)cc23)C(=O)N1 [PNR-6-91] is lower in remaining activity at 1 µM: 22.9% for the first, 12.7% for the second.

Compared with CN1C(=O)C(=Cc2cn(Cc3cccc4ccccc34)c3ccc(Cl)cc23)C(=O)N(C)C1=O [PNR-6-90], CN1C(=O)C(=Cc2cn(Cc3cccc4ccccc34)c3ccc(Br)cc23)C(=O)N(C)C1=O [PNR-6-93] is higher in remaining activity at 1 µM: 35.9% for the first, 45.8% for the second.

First: O=C1NC(=S)NC(=O)C1=Cc1cn(Cc2cccc3ccccc23)c2ccc(Br)cc12 [PNR-6-92]
Second: O=C1NC(=S)NC(=O)C1=Cc1cn(Cc2ccc3ccccc3c2)c2ccc(Cl)cc12 [PNR-7-2]
The remaining activity at 1 µM of the first is lower: 8.9% for the first, 17.8% for the second.

Compared with O=C1NC(=S)NC(=O)C1=Cc1cn(Cc2ccc3ccccc3c2)c2ccccc12 [PNR-6-98], COc1ccc2c(c1)c(C=C1C(=O)NC(=S)NC1=O)cn2Cc1ccc2ccccc2c1 [PNR-7-5] is lower in remaining activity at 1 µM: 15.7% for the first, 13.8% for the second.

Going from CN1C(=O)C(=Cc2cn(Cc3ccc4ccccc4c3)c3ccccc23)C(=O)N(C)C1=O [PNR-6-99] to CN1C(=O)C(=Cc2cn(Cc3ccc4ccccc4c3)c3ccc(Cl)cc23)C(=O)N(C)C1=O [PNR-7-3], the remaining activity at 1 µM falls from 71.7% to 59.1%.

Compared with O=C1NC(=O)C(=Cc2cn(Cc3ccc4ccccc4c3)c3ccc(Cl)cc23)C(=O)N1 [PNR-7-1], COc1ccc2c(c1)c(C=C1C(=O)NC(=O)NC1=O)cn2Cc1ccc2ccccc2c1 [PNR-7-4] is higher in remaining activity at 1 µM: 14.8% for the first, 24.7% for the second.

Going from O=C1NC(=O)C(=Cc2cn(Cc3ccccc3Br)c3ccccc23)C(=O)N1 [PNR-7-7] to O=C1NC(=S)NC(=O)C1=Cc1cn(Cc2ccccc2Br)c2ccccc12 [PNR-7-8], the remaining activity at 1 µM rises from 14.1% to 58%.

First: CN1C(=O)C(=Cc2cn(Cc3cccc(C(F)(F)F)c3)c3ccccc23)C(=O)N(C)C1=O [PNR-7-16]
Second: O=C1NC(=O)C(=Cc2cn(Cc3cccc(C(F)(F)F)c3)c3ccc(Cl)cc23)C(=O)N1 [PNR-7-17]
The remaining activity at 1 µM of the first is lower: 17.2% for the first, 57.1% for the second.

Going from O=C1NC(=S)NC(=O)C1=Cc1cn(Cc2cccc(C(F)(F)F)c2)c2ccc(Cl)cc12 [PNR-7-18] to COc1ccc2c(c1)c(C=C1C(=O)NC(=S)NC1=O)cn2Cc1cccc(C(F)(F)F)c1 [PNR-7-21], the remaining activity at 1 µM rises from 14.1% to 28.8%.

Molecular target: T2, EndoG
Experiment: Plasmid incision assay
Format: biochemical
Conditions: agarose gel, FIG. 9
Protocol: A reaction mixture was prepared containing 0.5 μg pECFP plasmid DNA, 2 mM CaCl2, 5 mM MgCl2, 10 mM Tris-HCl, pH 7.4, 0.5 mM dithiothreitol. The test compound [50 ng in DMSO (1 μl)] was added. Recombinant EndoG was then added to the final concentration of 200 ng/ml and the reaction was incubated for 1 h at 37° C. The reaction was terminated by adding 2 μl of 10 mM Tris-HCl, pH 7.4, 1% SDS, 25 mM EDTA, 7.2 mM bromophenol blue. The samples were run in 1% agarose gel in Tris-acetate-EDTA buffer (40 mM Tris, 20 mM acetic acid, 1 mM EDTA, pH 8), at 7 V/cm for 35 min, and DNA was stained with ethidium bromide. An EagleEye scanning densitometer (Stratagene, La Jolla, Calif.) was utilized to quantify the relative amount of endonuclease-treated plasmid DNA present in a covalently-closed circular (supercoiled) DNA, open circular DNA, or linear DNA, or in a digested form.

In the case of [Cl-].[Cl-].[Zn+2] [ZnCl2, reference compound], the “protection of supercoiled plasmid DNA from degradation by EndoG” value is reported as “inhibited”.
